Data on 14 molecules can be found in patent US9686990B2, “Spiroindolinepiperidine derivatives” (priority 2002, dated 2017).

Holding throughout (type): in vivo
Test [1] relates to Heliothis virescens (Tobacco Budworm). Briefly: Heliothis virescens egg/larva test on artificial diet. The settings on record: 96 h, read-out: control of Heliothis virescens.
For test [2], the system named is Plutella xylostella (Diamond Back Moth). As to the kind of experiment: Plutella xylostella larva test on artificial diet. The following applies: 120 h, 18.2 ppm by pipetting on artificial diet, L2 larvae, 5 days incubation, larval mortality, antifeedant, growth regulation. As to the method: (§1) Test against were performed as follows:
24-well microtiter plate (MTP) with artificial diet was treated with test solutions at an application rate of 18.2 ppm by pipetting. After drying, the MTP's were infested with larvae (L2) (10-15 per well). After an incubation period of 5 days, samples were checked for larval mortality, antifeedant and growth regulation.

For test [3], the system named is Spodoptera littoralis (Egyptian Cotton Leafworm). As to the kind of experiment: Spodoptera littoralis cotton leaf disc spray test. The settings on record: foliar, 72 h, read-out: control of Spodoptera littoralis. As to the method:
as §1
Spodoptera littoralis (Egyptian Cotton Leafworm)

For test [4], the system named is Aedes aegypti (Yellow Fever Mosquito). Briefly: whole plant or invertebrate. The following applies: 48 h, L2 larvae with nutrition mixture, 2 days, mortality and growth inhibition. As to the method:
as §1
Bean leaf discs on agar in 24-well microtiter plates wer sprayed with test solutions at an application rate of 200 ppm. After drying, the leaf discs are infested with mite populations of mixed ages. 8 days later, discs are checked for egg mortality, larval mortality, and adult mortality. […] Aedes aegypti (Yellow Fever Mosquito): 10-15 Aedes larvae (L2) together with a nutrition mixture are placed in 96-well microtiter plates. Test solutions at an application rate of 2 ppm are pipetted into the wells. 2 days later, insects were checked for mortality and growth inhibition.

On to `O=C(c1ccnc(Cl)c1)N1CC2(CCN(C/C=C/c3ccccc3)CC2)c2ccccc21` [Compound I-1, 1-(2-Chloropyridin-4-yl)carbonyl-1′-[trans-3-phenylallyl]spiro[indoline-3,4′-piperidine]], for which the pest or weed control at 200 ppm in test [1] is no less than 80%. In test [2], this molecule returned a pest or weed control at 18.2 ppm of no less than 80%.

For `N#Cc1ccc2c(c1)C1(CCN(C/C=C/c3ccc(Cl)cc3)CC1)CN2C(=O)c1ccnc(Cl)c1` [Compound I-212, 5-Cyano-1-(2-chloropyridin-4-yl)carbonyl-1′-[trans-3-(4-chlorophenyl)allyl]spiro[indoline-3,4′-piperidine]], the pest or weed control at 200 ppm in test [3] and in test [1] was no less than 80% each time. In test [2], this molecule displayed a pest or weed control at 18.2 ppm of no less than 80%. Further, the pest or weed control at 2 ppm in test [4] is no less than 80%.

As to `CC(=O)N1CC2(CCN(C/C=C/c3ccc(Cl)cc3)CC2)c2cc(Cl)ccc21` [Compound V-22, 1-Acetyl-5-chloro-1′-[trans-3-(4-chlorophenyl)allyl]spiro[indoline-3,4′-piperidine]], the pest or weed control at 200 ppm in test [3] and in test [1] was no less than 80% each time. The molecule further registered a pest or weed control at 18.2 ppm in test [2] of no less than 80%. Also, the pest or weed control at 2 ppm in test [4] was no less than 80%.

In the case of `O=C(c1ccncc1)N1CC2(CCN(C/C=C/c3ccc(Cl)cc3)CC2)c2cc(Cl)ccc21` [VI-22, 1-(Pyridin-4-yl)-carbonyl-5-chloro-1′-[trans-3-(4-chlorophenyl)allyl]spiro[indoline-3,4′-piperidine]], the pest or weed control at 200 ppm in test [3] and in test [1] was no less than 80% in each case. Moreover, the pest or weed control at 18.2 ppm in test [2] is no less than 80%. Also, the pest or weed control at 2 ppm in test [4] was no less than 80%.

For `Clc1ccc(/C=C/CN2CCC3(CC2)CN(c2cnccn2)c2ccc(Cl)cc23)cc1` [XIV-22, 1-(2-Pyrazinyl)-5-chloro-1′-[trans-3-(4-chlorophenyl)allyl]spiro[indoline-3,4′-piperidine]], the pest or weed control at 200 ppm in test [3] and in test [1] was no less than 80% each time. Further, the pest or weed control at 18.2 ppm in test [2] is no less than 80%. In test [4], the pest or weed control at 2 ppm was no less than 80%.

Consider `Cc1ccc2c(c1)C1(CCN(C/C=C/c3ccc(Cl)cc3)CC1)CN2C(=O)c1ccc(C#N)cc1` [XIX-202, 1-(4-cyanobenzoyl)-5-methyl-1′-[trans-3-(4-chlorophenyl)allyl]spiro[indoline-3,4′-piperidine]], for which the pest or weed control at 200 ppm in test [3] and in test [1] was no less than 80% each time.

As for `O=C(c1ccnc(Cl)c1)N1CC2(CCN(C/C=C/c3ccc(C(F)(F)F)cc3)CC2)c2cc(Cl)ccc21` [XXX-51, 1-(2-chloropyridin-4-yl)carbonyl-5-chloro-1′-[(E)-3-(4-trifluoromethyl-phenyl)allyl]spiro[indolin-3,4′-piperidine]], in test [3], the pest or weed control at 200 ppm was no less than 80%. This molecule also registered a pest or weed control at 18.2 ppm in test [2] of no less than 80%. Moreover, the pest or weed control at 2 ppm in test [4] was no less than 80%.

As for `CSc1ccc(/C=C\CN2CCC3(CC2)CN(C(=O)c2ccnc(Cl)c2)c2ccc(Cl)cc23)cc1` [XXX-72, 1-(2-chloropyridin-4-yl)carbonyl-5-chloro-1′-[(Z)-3-(4-methylthiophenyl)allyl]spiro[indolin-3,4′-piperidine]], the pest or weed control at 200 ppm in test [1] was no less than 80%.

In the case of `O=C(c1ccnc(Cl)c1)N1CC2(CCN(C/C=C(\F)c3ccc(Cl)cc3)CC2)c2cc(Cl)ccc21` [XXX-90, 1-(2-chloropyridin-4-yl)carbonyl-5-chloro-1′-[(Z)-3-(4-chlorophenyl)-3-fluoro-allyl]spiro[indolin-3,4′-piperidine]], in test [1], the pest or weed control at 200 ppm is no less than 80%. This molecule also gave a pest or weed control at 18.2 ppm in test [2] of no less than 80%. Further, the pest or weed control at 2 ppm in test [4] was no less than 80%.

As for `NN1CC2(CCN(C/C=C/c3ccc(Cl)cc3)CC2)c2cc(F)ccc21` [XXX-94], the pest or weed control at 200 ppm in test [1] was no less than 80%. Also, in test [4], the pest or weed control at 2 ppm was no less than 80%.

Regarding `C/C(=N/N1CC2(CCN(C/C=C/c3ccc(Cl)cc3)CC2)c2cc(Cl)ccc21)N(C)C` [XXX-102, N′-[5-chloro-1′-[trans-3-(4-chlorophenyl)allyl]spiro[indoline-3,4′-piperidine]-1-yl]-N,N-dimethylacetamidine], the pest or weed control at 2 ppm in test [4] is no less than 80%.

As to `COCCNC(=O)N1CC2(CCN(C/C=C/c3ccc(Cl)cc3)CC2)c2cc(F)ccc21` [XXX-105], the pest or weed control at 200 ppm in test [3] and in test [1] was no less than 80% throughout. In addition, the pest or weed control at 18.2 ppm in test [2] is no less than 80%. The pest or weed control at 2 ppm in test [4] is no less than 80%.

For `O=C(c1ccnc(Cl)c1)N1CC2(CCN(C/C(F)=C/c3ccc(Cl)cc3)CC2)c2cc(Cl)ccc21` [XXX-113, 1-(2-chloropyridin-4-yl)carbonyl-5-chloro-1′-[(Z)-3-(4-chlorophenyl)-2-fluoro-allyl]spiro[indolin-3,4′-piperidine]], the pest or weed control at 200 ppm in test [3] and in test [1] was no less than 80% throughout. Further, the pest or weed control at 18.2 ppm in test [2] was no less than 80%. Besides, in test [4], the pest or weed control at 2 ppm was no less than 80%.

Regarding `O=C(c1ccnc(Cl)c1)N1CC2(CCN(C/C=C(\Cl)c3ccc(Cl)cc3)CC2)c2cc(Cl)ccc21` [XXX-115, 1-(2-chloropyridin-4-yl)carbonyl-5-chloro-1′-[(Z)-3-(4-chlorophenyl)-3-chloro-allyl]spiro[indolin-3,4′-piperidine]], in test [1], the pest or weed control at 200 ppm was no less than 80%.
